Test results reported in US20230047788A1, “COMPOSITIONS COMPRISING 5-CHOLESTEN-3, 25-DIOL, 3-SULFATE (25HC3S) OR PHARMACEUTICALLY ACCEPTABLE SALT THEREOF AND AT LEAST ONE CYCLIC OLIGOSACCHARIDE” (Virginia Commonwealth University, priority 2016, published 2023).

Test: Effect of phosphate and borate buffers on chemical stability (% remaining, impurity profile), osmolality, pH and appearance of 25HC3S 30 mg/mL in 250 mg/mL HPBCD at 80°C and 60°C
Assay type: physicochemical
Conditions: 80° C.
Procedure: A total of six 25HC3S formulations at 30 mg/mL in 250 mg/mL of 2-hydroxypropyl beta cyclodextrin (HPBCD) containing 10, 20, 50 and 100 mM phosphate buffers at pH 7.5 to 8.1 and 10 and 50 mM borate buffers at pH 9.4 were prepared for the stability study. The chemical stability (measured as % remaining of 25HC3S) and physical stability (osmolality, pH and appearance) of the formulations were monitored under accelerated conditions for up to 7 days at 80° C. and up to 29 days at 60° C.
Two stock solutions of phosphate buffer at 100 and 200 mM at pH 7.4 and 7.3, respectively and one borate buffer at 100 mM at pH 9.3 were prepared (Tables 22A and 22B) and used for 250 mg/mL HPBCD vehicles preparation (Table 23).
Approximately 1200 mg each of 25HC3S was weighed into 40 mL volumetric flasks and diluted to volume with the six HPBCD vehicles containing 10-100 mM phosphate buffers or 10 and 50 mM borate buffers, respectively (Table 24). The final concentration of 25HC3S was 30 mg/mL (wt/volume, without adjusting for API purity). Aliquots of 2 mL of each formulation were filled into 2 mL glass vials, stoppered and sealed for stability sample set-up at 60° C. and 80° C. to study the effect of phosphate buffer (pH 7.5-8.1) and borate buffer (pH 9.4) at various buffer concentrations on the stability of the HPBCD formulations (Table 26).
A 0.5 mL of sample solution was transferred to a 25 mL volumetric flask and QS'ed with methanol/water=95/5 for 25HC3S concentration determination by HPLC. The % remaining of 25HC3S was calculated as follows: […]

## C[C@H](CCCC(C)(C)O)[C@H]1CC[C@H]2[C@@H]3CC=C4C[C@@H](OS(=O)(=O)[O-])CC[C@]4(C)[C@H]3CC[C@]12C.[Na+] [25HC3S, 5-cholesten-3, 25-diol, 3-sulfate]
Day 0, Phosphate 10 mM
  % Peak Area Major Thermal Degradant at RRT = 2.64: 0.3 % Peak Area
Day 0, Phosphate 20 mM
  % Peak Area 25-Hydroxy Cholesterol at RRT = 3.67: 0.0 % Peak Area
  % Peak Area 25HC3S: 99.7 % Peak Area
  % Peak Area Major Thermal Degradant at RRT = 2.64: 0.3 % Peak Area
Day 0, Phosphate 50 mM
  % Peak Area 25-Hydroxy Cholesterol at RRT = 3.67: 0.0 % Peak Area
  % Peak Area 25HC3S: 99.7 % Peak Area
  % Peak Area Major Thermal Degradant at RRT = 2.64: 0.3 % Peak Area
Day 0, Phosphate 100 mM
  % Peak Area 25-Hydroxy Cholesterol at RRT = 3.67: 0.0 % Peak Area
  % Peak Area 25HC3S: 99.8 % Peak Area
  % Peak Area Major Thermal Degradant at RRT = 2.64: 0.3 % Peak Area
Day 1, Borate 10 mM
  % Peak Area 25-Hydroxy Cholesterol at RRT = 3.67: 1.0 % Peak Area
  % Peak Area 25HC3S: 98.8 % Peak Area
  % Peak Area Major Thermal Degradant at RRT = 2.64: 0.3 % Peak Area
Day 1, Borate 50 mM
  % Peak Area 25-Hydroxy Cholesterol at RRT = 3.67: 1.0 % Peak Area
  % Peak Area 25HC3S: 98.7 % Peak Area
  % Peak Area Major Thermal Degradant at RRT = 2.64: 0.3 % Peak Area
Day 1, Phosphate 10 mM
  % Peak Area 25-Hydroxy Cholesterol at RRT = 3.67: 0.9 % Peak Area
  % Peak Area 25HC3S: 98.9 % Peak Area
  % Peak Area Major Thermal Degradant at RRT = 2.64: 0.3 % Peak Area
Day 1, Phosphate 20 mM
  % Peak Area 25-Hydroxy Cholesterol at RRT = 3.67: 1.0 % Peak Area
  % Peak Area 25HC3S: 98.8 % Peak Area
  % Peak Area Major Thermal Degradant at RRT = 2.64: 0.3 % Peak Area
Day 1, Phosphate 50 mM
  % Peak Area 25-Hydroxy Cholesterol at RRT = 3.67: 1.0 % Peak Area
  % Peak Area 25HC3S: 98.9 % Peak Area
  % Peak Area Major Thermal Degradant at RRT = 2.64: 0.2 % Peak Area
Day 1, Phosphate 100 mM
  % Peak Area 25-Hydroxy Cholesterol at RRT = 3.67: 0.9 % Peak Area
  % Peak Area 25HC3S: 98.8 % Peak Area
  % Peak Area Major Thermal Degradant at RRT = 2.64: 0.3 % Peak Area
Day 2, Borate 10 mM
  % Peak Area 25-Hydroxy Cholesterol at RRT = 3.67: 1.9 % Peak Area
  % Peak Area 25HC3S: 97.9 % Peak Area
  % Peak Area Major Thermal Degradant at RRT = 2.64: 0.3 % Peak Area
Day 2, Borate 50 mM
  % Peak Area 25-Hydroxy Cholesterol at RRT = 3.67: 2.0 % Peak Area
  % Peak Area 25HC3S: 97.8 % Peak Area
  % Peak Area Major Thermal Degradant at RRT = 2.64: 0.3 % Peak Area
Day 2, Phosphate 10 mM
  % Peak Area 25-Hydroxy Cholesterol at RRT = 3.67: 1.9 % Peak Area
  % Peak Area 25HC3S: 97.9 % Peak Area
  % Peak Area Major Thermal Degradant at RRT = 2.64: 0.3 % Peak Area
Day 2, Phosphate 20 mM
  % Peak Area 25-Hydroxy Cholesterol at RRT = 3.67: 1.9 % Peak Area
  % Peak Area 25HC3S: 98.0 % Peak Area
  % Peak Area Major Thermal Degradant at RRT = 2.64: 0.2 % Peak Area
Day 2, Phosphate 50 mM
  % Peak Area 25-Hydroxy Cholesterol at RRT = 3.67: 2.0 % Peak Area
  % Peak Area 25HC3S: 97.8 % Peak Area
  % Peak Area Major Thermal Degradant at RRT = 2.64: 0.3 % Peak Area
Day 2, Phosphate 100 mM
  % Peak Area 25-Hydroxy Cholesterol at RRT = 3.67: 2.0 % Peak Area
  % Peak Area 25HC3S: 97.8 % Peak Area
  % Peak Area Major Thermal Degradant at RRT = 2.64: 0.3 % Peak Area
Day 3, Borate 10 mM
  % Peak Area 25-Hydroxy Cholesterol at RRT = 3.67: 2.8 % Peak Area
  % Peak Area 25HC3S: 97.0 % Peak Area
  % Peak Area Major Thermal Degradant at RRT = 2.64: 0.3 % Peak Area
Day 3, Borate 50 mM
  % Peak Area 25-Hydroxy Cholesterol at RRT = 3.67: 3.0 % Peak Area
  % Peak Area 25HC3S: 96.9 % Peak Area
  % Peak Area Major Thermal Degradant at RRT = 2.64: 0.2 % Peak Area
Day 3, Phosphate 10 mM
  % Peak Area 25-Hydroxy Cholesterol at RRT = 3.67: 4.3 % Peak Area
  % Peak Area 25HC3S: 95.6 % Peak Area
  % Peak Area Major Thermal Degradant at RRT = 2.64: 0.2 % Peak Area
Day 3, Phosphate 20 mM
  % Peak Area 25-Hydroxy Cholesterol at RRT = 3.67: 3.5 % Peak Area
  % Peak Area 25HC3S: 96.4 % Peak Area
  % Peak Area Major Thermal Degradant at RRT = 2.64: 0.2 % Peak Area
Day 3, Phosphate 50 mM
  % Peak Area 25-Hydroxy Cholesterol at RRT = 3.67: 3.3 % Peak Area
  % Peak Area 25HC3S: 96.5 % Peak Area
  % Peak Area Major Thermal Degradant at RRT = 2.64: 0.3 % Peak Area
Day 3, Phosphate 100 mM
  % Peak Area 25-Hydroxy Cholesterol at RRT = 3.67: 3.2 % Peak Area
  % Peak Area 25HC3S: 96.6 % Peak Area
  % Peak Area Major Thermal Degradant at RRT = 2.64: 0.3 % Peak Area
Day 7, Borate 10 mM
  % Peak Area 25-Hydroxy Cholesterol at RRT = 3.67: 7.3 % Peak Area
  % Peak Area 25HC3S: 92.5 % Peak Area
  % Peak Area Major Thermal Degradant at RRT = 2.64: 0.2 % Peak Area
Day 7, Borate 50 mM
  % Peak Area 25-Hydroxy Cholesterol at RRT = 3.67: 6.2 % Peak Area
  % Peak Area 25HC3S: 93.6 % Peak Area
  % Peak Area Major Thermal Degradant at RRT = 2.64: 0.3 % Peak Area
Day 7, Phosphate 10 mM
  % Peak Area 25-Hydroxy Cholesterol at RRT = 3.67: 27.1 % Peak Area
  % Peak Area 25HC3S: 72.3 % Peak Area
  % Peak Area Major Thermal Degradant at RRT = 2.64: 0.7 % Peak Area
Day 7, Phosphate 20 mM
  % Peak Area 25-Hydroxy Cholesterol at RRT = 3.67: 19.8 % Peak Area
  % Peak Area 25HC3S: 79.9 % Peak Area
  % Peak Area Major Thermal Degradant at RRT = 2.64: 0.2 % Peak Area
Day 7, Phosphate 50 mM
  % Peak Area 25-Hydroxy Cholesterol at RRT = 3.67: 11.6 % Peak Area
  % Peak Area 25HC3S: 88.2 % Peak Area
  % Peak Area Major Thermal Degradant at RRT = 2.64: 0.2 % Peak Area
Day 7, Phosphate 100 mM
  % Peak Area 25-Hydroxy Cholesterol at RRT = 3.67: 9.8 % Peak Area
  % Peak Area 25HC3S: 90.0 % Peak Area
  % Peak Area Major Thermal Degradant at RRT = 2.64: 0.2 % Peak Area
